The NIST ThermoML archive (doi:10.1021/acs.jced.8b01157)
Numbers after ± are expanded uncertainties.

Assay: mn = molality of the nth substance listed, in mol/kg
Conditions: 100 kPa, Liquid; for speed of sound: Frequency=3 MHz, Single path-length method; for mass density: Vibrating tube method

Row | SMILES | speed of sound (288.15 K, m1 = 0.5) [m/s] | speed of sound (288.15 K, m1 = 1) [m/s] | speed of sound (288.15 K, m1 = 1.5) [m/s] | mass density (288.15 K, m1 = 0.5) [kg/m3] | mass density (288.15 K, m1 = 1) [kg/m3] | mass density (288.15 K, m1 = 1.5) [kg/m3] | speed of sound (298.15 K, m1 = 0.5) [m/s] | speed of sound (298.15 K, m1 = 1) [m/s] | speed of sound (298.15 K, m1 = 1.5) [m/s] | mass density (298.15 K, m1 = 0.5) [kg/m3] | mass density (298.15 K, m1 = 1) [kg/m3] | mass density (298.15 K, m1 = 1.5) [kg/m3] | speed of sound (308.15 K, m1 = 0.5) [m/s] | speed of sound (308.15 K, m1 = 1) [m/s] | speed of sound (308.15 K, m1 = 1.5) [m/s] | mass density (308.15 K, m1 = 0.5) [kg/m3] | mass density (308.15 K, m1 = 1) [kg/m3] | mass density (308.15 K, m1 = 1.5) [kg/m3] | speed of sound (318.15 K, m1 = 0.5) [m/s] | speed of sound (318.15 K, m1 = 1) [m/s] | further results
1 | N.O=P(O)(O)O [ammonium dihydrogen phosphate] + O | 1507.3 ± 2.2 | 1544.3 ± 2.5 | 1579 ± 2.9 | 1030 ± 1.1 | 1057.62 ± 1.5 | 1082.56 ± 1.8 | 1534.9 ± 2.1 | 1569.7 ± 2.4 | 1602.4 ± 2.7 | 1026.45 ± 1.1 | 1054.22 ± 1.5 | 1079.6 ± 1.8 | 1555.9 ± 2.1 | 1588.9 ± 2.4 | 1619.9 ± 2.7 | 1023.33 ± 1.1 | 1050.98 ± 1.5 | 1075.85 ± 1.8 | 1570.9 ± 2.1 | 1602.6 ± 2.4 | speed of sound (318.15 K, m1 = 1.5): 1631.1 ± 2.7 m/s; mass density (318.15 K, m1 = 0.5): 1019.74 ± 1.1 kg/m3; mass density (318.15 K, m1 = 1): 1046.48 ± 1.4 kg/m3; mass density (318.15 K, m1 = 1.5): 1071.76 ± 1.8 kg/m3
2 | N.N.O=P(O)(O)O [diammonium hydrogen phosphate] + O | 1517.7 ± 2.3 | 1572 ± 3 | 1629.6 ± 4 | 1032.61 ± 1.2 | 1066.4 ± 1.6 | 1097.53 ± 2.1 | 1544.3 ± 2.3 | 1597.9 ± 2.9 | 1650.4 ± 3.6 | 1030.71 ± 1.2 | 1064.03 ± 1.6 | 1095.18 ± 2.1 | 1564.8 ± 2.3 | 1614.1 ± 2.8 | 1664.4 ± 3.6 | 1026.1 ± 1.2 | 1060.22 ± 1.6 | 1090.11 ± 2.1 | 1581.3 ± 2.2 | 1628.3 ± 2.8 | speed of sound (318.15 K, m1 = 1.5): 1676.6 ± 3.5 m/s; mass density (318.15 K, m1 = 0.5): 1022.85 ± 1.2 kg/m3; mass density (318.15 K, m1 = 1): 1055.59 ± 1.6 kg/m3; mass density (318.15 K, m1 = 1.5): 1086.19 ± 2.1 kg/m3
